Counter-ions that a name gives are not always drawn. Marks after values point to notes of the source that are not given here. Where a SMILES comes first, the peptide text is derived from it. [ ]: non-standard residue; d: D form. dTrp(1-Me) = Cn1cc(C[C@@H](N)C(=O)O)c2ccccc21
Tests used:
[1] = pharmacokinetic testing of indoximod prodrug salts in solid capsule formulation in rats; type: in vivo; settings: rats; for increase in indoximod AUC versus equivalent molar dose of indoximod / increase in indoximod Cmax versus equivalent molar dose of indoximod: dose not given (Tables 10.2, 10.3); for % Change Cmax / % Change in AUC: vs indoximod free base, oral capsules
Experimental: These blends were formulated so that each capsule contained the same molar dose of each prodrug. […] The composition and uniformity of a representative sample of capsules from each batch was verified by weight and by LC-MS/MS to determine the average indoximod or prodrug content.
(§1) Rats were fasted 16 h prior to dosing to eliminate any confounding food effects, and food was returned 2 h after dosing.

[2] = solubility of indoximod and its salts in water, buffers and SGF; type: physicochemical; settings: 25° C.; for pH of the SGF solution (in brackets): SGF solubility test; for pH of the water solution (in brackets): water solubility test
[3] = pharmacokinetic testing of indoximod salts in capsule formulation in rats; type: in vivo; settings: capsules
Experimental: Three dose levels were investigated: 37, 185 or 500 μmol/kg.
Capsules were manually filled and the composition uniformity of a representative sample of capsules from each batch was verified by weight and by LC-MS/MS to determine the average indoximod content.
as §1

[4] = pharmacokinetic testing of indoximod prodrugs in liquid formulation in mice; settings: mice; for change in indoximod Cmax versus indoximod in suspension: oral, all doses tested (10, 50 and 100 mg/kg)
Experimental: Blood samples (0.1-0.2 mL) were collected from the femoral artery port from rats or by retro-orbital bleeding from mice and plasma was immediately collected by centrifugation and stored on dry ice to avoid prodrug hydrolysis after plasma collection. […] The pharmacokinetic parameters reflect the average of individual parameter values obtained from each individual rat (n) or one common parameter from a single pharmacokinetic curve derived from blood samples obtained from a group of mice (n).

[5] = hygroscopicity and stability of indoximod and its salts; type: physicochemical; settings: Table 2, in % (unit assumed)
[6] = Table 10.2, dose 37 μmol/kg, salt form HCl
[7] = Table 10.2, dose 185 μmol/kg, salt form H3PO4
[8] = Table 10.2, dose 185 μmol/kg, salt form HCl
[9] = listed as Mesylate, methanesulfonate
[10] = Table 10.3, dose 37 μmol/kg, salt form free base
[11] = Table 10.1, dose 37 μmol/kg, salt form free base
[12] = 37 μmol/kg, listed as Indoximod phosphate, phosphate
[13] = 185 μmol/kg, listed as Indoximod phosphate, phosphate
[14] = 500 μmol/kg, listed as Indoximod phosphate, phosphate

Cn1cc(C[C@@H](NC(=O)[C@@H](N)CCCCN)C(=O)O)c2ccccc21 [N^α-(L-lysyl)-1-methyl-D-tryptophan] (H-Lys-[dTrp(1-Me)]-OH)
increase in indoximod AUC versus equivalent molar dose of indoximod ([1]; capsules): minor and non-statistically significant variations | increase in indoximod Cmax versus equivalent molar dose of indoximod ([1]; capsules): minor and non-statistically significant variations

CCOC(=O)[C@@H](Cc1cn(C)c2ccccc12)NC(=O)[C@@H](N)CC(C)C [NLG-1691, ethyl N^α-((S)-2-(λ^4-azanyl)-4-methylpentanoyl)-1-methyl-D-tryptophanate sulfate]
increase in exposure (AUC) of indoximod versus indoximod ([1]; capsules, 37-185 μmol/kg): did not result in a significant increase | increase in indoximod Cmax versus indoximod ([1]; capsules, 37-185 μmol/kg): did not result in a significant increase

CCOC(=O)[C@@H](Cc1cn(C)c2ccccc12)NC(=O)[C@@H](N)CC(C)C [NLG-1666, (S)-1-(((R)-1-ethoxy-3-(1-methyl-1H-indol-3-yl)-1-oxopropan-2-yl)amino)-4-methyl-1-oxopentan-2-aminium methanesulfonate]
increase in indoximod Cmax versus indoximod ([1]; capsules, 37-185 μmol/kg, methanesulfonate): significant increases

CCOC(=O)[C@@H](Cc1cn(C)c2ccccc12)NC(=O)[C@@H](N)CC(C)C.Cl [NLG-1564, ethyl N^α-(L-leucyl)-1-methyl-D-tryptophanate hydrochloride]
change in indoximod AUC compared to indoximod ([1]; capsules, 500 μmol/kg): minor increase | change in indoximod Cmax compared to indoximod ([1]; capsules, 500 μmol/kg): minor increase | increase in indoximod Cmax versus indoximod ([1]; capsules, 37-185 μmol/kg): significant increases

CCOC(=O)[C@@H](Cc1cn(C)c2ccccc12)NC(=O)C[C@H](N)C(=O)OC.Cl [NLG-1585, methyl N^4-((R)-1-ethoxy-3-(1-methyl-1H-indol-3-yl)-1-oxopropan-2-yl)-L-asparaginate hydrochloride]
increase in indoximod AUC versus equivalent molar dose of indoximod ([1]; capsules): minor and non-statistically significant variations | increase in indoximod Cmax versus equivalent molar dose of indoximod ([1]; capsules): minor and non-statistically significant variations

Cn1cc(C[C@@H](N)C(=O)OCC(O)CO)c2ccccc21 (stereo partly drawn) [NLG-1627, (2R)-1-(2,3-dihydroxypropoxy)-3-(1-methyl-1H-indol-3-yl)-1-oxopropan-2-aminium methanesulfonate]
increase in indoximod AUC versus equivalent molar dose of indoximod ([1]; capsules, methanesulfonate): decrease | increase in indoximod Cmax versus equivalent molar dose of indoximod ([1]; capsules, methanesulfonate): decrease

CS(=O)(=O)O.Cn1cc(C[C@@H](N)C(=O)O)c2ccccc21.Cn1cc(C[C@@H](N)C(=O)O)c2ccccc21 [Hemi-Mesylate]
Solubility (25° C., mg/mL) SGF [2]: 6.0 mg/mL | pH of the SGF solution (in brackets) [2]: 1.84 | Solubility (25° C., mg/mL) Water [2]: 5.5 mg/mL | pH of the water solution (in brackets) [2]: 2.34

CSCC[C@H](N)C(=O)N[C@H](Cc1cn(C)c2ccccc12)C(=O)O [NLG-3380] (H-Met-[dTrp(1-Me)]-OH)
% Change Cmax [1, 6]: 16% | % Change in AUC [1, 6]: 24% | % Change Cmax [1, 7]: 118% | % Change in AUC [1, 7]: 66% | % Change Cmax [1, 8]: 345% | % Change in AUC [1, 8]: 181%

CCOC(=O)[C@@H](Cc1cn(C)c2ccccc12)NC(=O)[C@@H](N)CCC(N)=O [ethyl N^α-(L-glutaminyl)-1-methyl-D-tryptophanate] (H-Gln-[dTrp(1-Me)]-OEt)
increase in indoximod AUC versus equivalent molar dose of indoximod ([1]; capsules): minor and non-statistically significant variations | increase in indoximod Cmax versus equivalent molar dose of indoximod ([1]; capsules): minor and non-statistically significant variations

Cn1cc(C[C@@H](N)C(=O)OCC(O)CO)c2ccccc21 (stereo partly drawn) [NLG-1558, 2,3-dihydroxypropyl 1-methyl-D-tryptophanate hydrochloride]
increase in indoximod AUC versus equivalent molar dose of indoximod ([1]; capsules, hydrochloride): less significant increases | increase in indoximod Cmax versus equivalent molar dose of indoximod ([1]; capsules, hydrochloride): less significant increases

Cn1cc(C[C@@H](N)C(=O)O)c2ccccc21 [indoximod H2SO4, (R)-1-carboxy-2-(1-methyl-1H-indol-3-yl)ethan-1-aminium hydrogen sulfate]
% Increase over indoximod Free Base (AUC) ([3]; 37 μmol/kg, hydrogen sulfate): 42% | % Increase over indoximod Free Base (Cmax) ([3]; 37 μmol/kg, hydrogen sulfate): 42% | AUC(0 −> ∞) ([3]; 37 μmol/kg, hydrogen sulfate): 553 ± 196 µM·h | Cmax ([3]; 37 μmol/kg, hydrogen sulfate): 22.6 ± 7 µM

Cn1cc(C[C@@H](N)C(=O)OCC(O)CO)c2ccccc21.O=P(O)(O)O (stereo partly drawn) [NLG-1626, (2R)-1-(2,3-dihydroxypropoxy)-3-(1-methyl-1H-indol-3-yl)-1-oxopropan-2-dihydrogen phosphate]
change in indoximod AUC versus indoximod ([4]; oral, 10, 50 and 100 mg/kg, percentage of increase decreases at higher doses): dose dependent increase | change in indoximod Cmax versus indoximod in suspension [4]: significant increase

Cn1cc(C[C@@H](NC(=O)CN)C(=O)O)c2ccccc21 [Cpd 05, N^α-(L-glycyl)-1-methyl-D-tryptophan] (H-Gly-[dTrp(1-Me)]-OH)
increase in indoximod AUC versus equivalent molar dose of indoximod ([1]; capsules): minor and non-statistically significant variations | increase in indoximod Cmax versus equivalent molar dose of indoximod ([1]; capsules): minor and non-statistically significant variations

Cn1cc(C[C@@H](N)C(=O)O)c2ccccc21 [indoximod CH3SO3H, (R)-1-carboxy-2-(1-methyl-1H-indol-3-yl)ethan-1-aminium methanesulfonate]
Hygroscopicity (0-80% RH) [5, 9]: 0.12* | pH of the SGF solution (in brackets) [2, 9]: 1.43 | Solubility (25° C., mg/mL) SGF [2, 9]: 6.0 mg/mL | pH of the water solution (in brackets) [2, 9]: 1.84 | Solubility (25° C., mg/mL) Water [2, 9]: 5.1 mg/mL | % Increase over indoximod Free Base (AUC) ([3]; 37 μmol/kg, methanesulfonate): 38% | % Increase over indoximod Free Base (Cmax) ([3]; 37 μmol/kg, methanesulfonate): 28% | AUC(0 −> ∞) ([3]; 37 μmol/kg, methanesulfonate): 537 ± 194 µM·h | Cmax ([3]; 37 μmol/kg, methanesulfonate): 20.3 ± 2 µM

CCOC(=O)[C@@H](Cc1cn(C)c2ccccc12)NC(=O)[C@@H](N)CCSC [NLG-3272, ethyl N^α-(L-methionyl)-1-methyl-D-tryptophanate] (H-Met-[dTrp(1-Me)]-OEt)
change in indoximod AUC versus indoximod ([1]; capsules, 37-500 μmol/kg): statistically significant increase | change in indoximod Cmax versus indoximod ([1]; capsules, 37-500 μmol/kg): statistically significant increase

CCOC(=O)[C@@H](Cc1cn(C)c2ccccc12)NC(=O)[C@@H](N)CCC(N)=O [NLG-1672] (H-Gln-[dTrp(1-Me)]-OEt)
% Change Cmax [1, 10]: 5% | % Change in AUC [1, 10]: −16%

Cn1cc(C[C@@H](N)C(=O)OCC(O)CO)c2ccccc21 (stereo partly drawn) [NLG-1628, (2R)-1-(2,3-dihydroxypropoxy)-3-(1-methyl-1H-indol-3-yl)-1-oxopropan-2-aminium sulfate]
increase in indoximod AUC versus equivalent molar dose of indoximod ([1]; capsules): less significant increases | increase in indoximod Cmax versus equivalent molar dose of indoximod ([1]; capsules): less significant increases

CCOC(=O)[C@@H](Cc1cn(C)c2ccccc12)NC(=O)[C@@H](N)CC(C)C.O=P(O)(O)O [NLG-1665]
increase in indoximod Cmax versus indoximod ([1]; capsules, 37-185 μmol/kg): significant increases | change in indoximod Cmax versus indoximod in suspension [4]: significant increase

Cn1cc(C[C@@H](NC(=O)[C@@H](N)CCCCN)C(=O)O)c2ccccc21 [NLG-1676] (H-Lys-[dTrp(1-Me)]-OH)
% Change Cmax [1, 11]: −17% | % Change in AUC [1, 11]: −13%

Cn1cc(C[C@@H](N)C(=O)O)c2ccccc21 [indoximod H3PO4, (R)-1-carboxy-2-(1-methyl-1H-indol-3-yl)ethan-1-aminium dihydrogen phosphate]
Hygroscopicity (0-80% RH) ([5]; phosphate): 1.7 | Solubility (25° C., mg/mL) SGF ([2]; phosphate): 9.83 (NA) mg/mL | Solubility (25° C., mg/mL) Water ([2]; phosphate): 8.32 (NA) mg/mL | % Increase over indoximod Free Base (AUC) [3, 12]: significant increase | % Increase over indoximod Free Base (Cmax) [3, 12]: significant increase | % Increase over indoximod Free Base (AUC) ([3]; 37 μmol/kg, phosphate): 43% | % Increase over indoximod Free Base (Cmax) ([3]; 37 μmol/kg, phosphate): 40% | AUC(0 −> ∞) ([3]; 37 μmol/kg, phosphate): 558 ± 185 µM·h | Cmax ([3]; 37 μmol/kg, phosphate): 22.3 ± 9 µM | % Increase over indoximod Free Base (AUC) [3, 13]: significant increase | % Increase over indoximod Free Base (Cmax) [3, 13]: significant increase | % Increase over indoximod Free Base (AUC) ([3]; 185 μmol/kg, phosphate): 34% | % Increase over indoximod Free Base (Cmax) ([3]; 185 μmol/kg, phosphate): 96% | AUC(0 −> ∞) ([3]; 185 μmol/kg, phosphate): 1446 ± 645 µM·h | Cmax ([3]; 185 μmol/kg, phosphate): 40.9 ± 5 µM | % Increase over indoximod Free Base (AUC) [3, 14]: non-statistically significant decrease | % Increase over indoximod Free Base (Cmax) [3, 14]: significant decrease | % Increase over indoximod Free Base (AUC) ([3]; 500 μmol/kg, phosphate): −34% | % Increase over indoximod Free Base (Cmax) ([3]; 500 μmol/kg, phosphate): −51% | AUC(0 −> ∞) ([3]; 500 μmol/kg, phosphate): 1902 ± 1288 µM·h | Cmax ([3]; 500 μmol/kg, phosphate): 37.2 ± 10 µM

O=S(=O)(O)O [Sulfate]
Hygroscopicity (0-80% RH) [5]: 3.4
